One block for each substance: values may come before it.
Assays:
[1] = molecular target: FAM-12bp-HM-DNA; experiment: Fluorescence polarization, 12-bp FAM-hm-DNA; format: binding; conditions: FP
Protocol: A 6-carboxy-fluorescein (FAM)-labelled primer, 5′-CCATGCGCTGAC-3′, was annealed to a primer 5′-GTCAGXGCATGG-3′ (X=5-methyldeoxycytosine). The hemi-methylated double-strand DNA was used in both electrophoretic mobility-shift assay and FP assays. […] The samples were subjected to a 10% polyacrylamide gel electrophoresis and run in 0.5 × Tris-borate-EDTA buffer at 100 V for 1 h at 4 °C. The results were visualized on Tanon-5200 Chemiluminescent Imaging System (Tanon Science & Technology Co., Ltd).
(§1) FP measurements were performed at 25 °C on Synergy 4 Microplate Reader (BioTek). The 16-bp and 20-bp FAM-labelled hm-DNA (lower strand: 5′-GTGTCAGXGCATGGCC-3′ and 5′-CCGTGTCAGXGCATGGCCAT-3′, respectively. X=5-methyldeoxycytosine) were used in the FP experiment to test the effect of DNA length on the protein/DNA interaction. All experiments were performed in triplicate. The curves were fitted by GraphPad Prism 5. For salt concentration-dependent FP experiments, the reaction buffer contains 50 mM or 150 mM NaCl, respectively.

[2] = molecular target: H3 peptide (1–17) (H3K9me0); experiment: ITC, H3 (H3K9me0) peptide (1-17) titrated into UHRF1 proteins; format: binding
Protocol: (§2) For competition ITC experiments: the indicated proteins were pre-incubated with competitive peptide, protein or hm-DNA (at 1:2 molar ratio if not specified) for 10 min followed by ITC measurements as described above. Proteins, DNA and peptides were prepared within ITC buffer containing 10 mM HEPES, pH 8.0, 100 mM NaCl. The data were fitted by software Origin 7.0. All ITC results were summarized in Supplementary Table 2 and raw data were shown in Supplementary Fig. 9.

[3] = test system: DAPI foci (pericentromeric heterochromatin) in NIH3T3 cells; experiment: Subcellular localization of GFP-tagged UHRF1 in NIH3T3 cells; format: cell-based; conditions: GFP-tagged protein transiently overexpressed in NIH3T3 cells, 36 h after transfection; at least 100 cells counted; repeated three times
Protocol: NIH3T3 cells were obtained from the Shanghai Institute of Biochemistry and Cell Biology. Wild type and mutants of UHRF1 were sub-cloned into pEGFP-C1 vector. Transient transfections of NIH3T3 cells were carried out using Lipofectamine 2000 (Invitrogen). The NIH3T3 cells were grown on glass coverslips and harvested in 36 h after transfection. The images were acquired and examined as previously described. Briefly, cells were fixed with 4% paraformaldehyde for 25 min, then washed with PBS three times. Coverslips were mounted with Antifade reagent containing DAPI (Molecular Probes) on slides and examined with a confocal microscopy.

[4] = molecular target: H3K9me3 peptide (1–17); experiment: ITC, H3K9me3 peptide (1-17) titrated into UHRF1 proteins; format: binding; conditions: ITC, 18 °C; named protein 0.05 mM in cell, H3K9me3 (1-17) 0.5 mM in syringe; 10 mM HEPES pH 8.0, 100 mM NaCl; read-out: KD
Protocol: as §2

[5] = molecular target: T1, TTD (residues 134–285) of UHRF1 (Homo sapiens, UniProt Q96T88); experiment: ITC, TTD titrated into Spacer variants and other UHRF1 fragments; format: binding; conditions: TTD in syringe
T1 construct: TTD (residues 134–285); GST (N, cleaved yes); made in house; host or cells: E. coli BL21 (DE3)
T1 sequence (Q96T88 134-285): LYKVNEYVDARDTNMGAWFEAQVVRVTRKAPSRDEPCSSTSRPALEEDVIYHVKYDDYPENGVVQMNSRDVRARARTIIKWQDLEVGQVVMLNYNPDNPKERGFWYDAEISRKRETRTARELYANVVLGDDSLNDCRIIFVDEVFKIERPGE
Protocol: as §2

[6] = molecular target: FAM-16bp-HM-DNA; experiment: Fluorescence polarization, 16-bp FAM-hm-DNA; format: binding; conditions: FP, DNA length series
Protocol: as §1

[7] = molecular target: hm-DNA (12 bp); experiment: ITC, hm-DNA titrated into UHRF1 domains; format: binding; conditions: 18 °C, 12-bp hm-DNA in syringe, named protein in cell, 10 mM HEPES pH 8.0, 100 mM NaCl
Protocol: as §2

[8] = molecular target: FAM-20bp-HM-DNA; experiment: Fluorescence polarization, 20-bp FAM-hm-DNA; format: binding; conditions: FP, DNA length series
Protocol: as §1

[9] = molecular target: RFTS^DNMT1; experiment: ITC, RFTS of DNMT1 with SRA or SRA-Spacer; format: binding; conditions: 18 °C, RFTS^DNMT1 with named protein, 10 mM HEPES pH 8.0, 100 mM NaCl
Protocol: as §2

[10] = molecular target: PHD (residues 307–366) of UHRF1; experiment: ITC, PHD titrated into UHRF1 domains; format: binding, human; conditions: 18 °C, PHD in syringe, named protein in cell, 10 mM HEPES pH 8.0, 100 mM NaCl
Protocol: as §2

[11] = 25 °C, 20 min, 20 mM HEPES pH 7.5, 175 mM NaCl, 8% glycerol, 1 mM DTT, triplicate, Fig. 5b and Supplementary Table 4

Kd [1, 11]: 0.35 µM
Kd ([2]; ITC, 18 °C, named protein 0.05 mM in cell, H3 (1-17) 0.5 mM in syringe, 10 mM HEPES pH 8.0, 100 mM NaCl): 26 ± 7.01 µM
Kd [4]: 4.61 ± 0.47 µM
Substance: UHRF1: recombinant human UHRF1 (residues 1–793); GFP-tagged in the cell assay
percentage of cells showing co-localization with DAPI foci [3]: 74.6%

N ([5]; ITC stoichiometry): 1.09±0.00765
ΔH ([5]; ITC): -11.3 kcal/mol
ΔS ([5]; ITC): -11.2 cal/mol/deg
Substance: Spacer642-674: Spacer fragment, residues 642–674 (TGKGKWKRKSAGGGPSRAGSPRRTSKKTKVEPY; left off: GST, end not stated, cleaved)

KD ([5]; ITC, 18 °C, named protein or peptide in cell, 10 mM HEPES pH 8.0, 100 mM NaCl): no detectable interaction
Substance: Spacer587-641: Spacer fragment, residues 587–641 (PGPWTKEGKDRIKKLGLTMQYPEGYLEALANREREKENSKREEEEQQEGGFASPR; left off: GST, end not stated, cleaved)

Kd [6]: 29.4 ± 9.74 µM
Kd ([1]; 12-bp hm-DNA, 50 mM NaCl): 0.15 ± 0.018 µM
Kd ([1]; 12-bp hm-DNA, 150 mM NaCl): 5.92 ± 1.32 µM
Kd [1, 11]: 9.23 ± 3.07 µM
Kd ([1]; DNA length series, Supplementary Table 5, 12-bp hm-DNA): 12.8 ± 2.07 µM
Kd [7]: 25.1 µM
Kd [8]: 9.59 ± 4.78 µM
KD [9]: no detectable interaction
Kd [10]: 26.7 ± 12.1 µM
Substance: SRA: SET-and-RING-associated domain of human UHRF1 (residues 414–617)

fold higher binding affinity to H3K9me0 peptide than full-length UHRF1 ([2]; ITC KD ratio): ~34 fold
Substance: PHD: plant homeodomain of human UHRF1 (residues 307–366) (DDVNRLCRVCACHLCGGRQDPDKQLMCDECDMAFHIYCLDPPLSSVPSEDEWYCPECRND; UniProt Q96T88 307-366, looked up, fragment)
